In US20160287568A1, “COMPOSITION OF A NON-NUCLEOSIDE REVERSE TRANSCRIPTASE INHIBITOR” (MERCK SHARP & DOHME CORP., priority 2013, published 2016):
Where two headings read alike, the source gives them in different places.

Columns and labels:
[1] = Storage of neat amorphous spray dried drug in open container, crystallization; assay type: physicochemical; settings: neat amorphous drug generated by spray drying
From the text: It is well understood that crystallization tendency varies dramatically across active pharmaceutical ingredients (Journal of Pharmaceutical Sciences, Vol. 99, No. 9, September 2010) and the rate of crystallization is a function of the thermodynamic driving force and the mobility of the system (Angell, C. A., Formation of Glasses from Liquids and Biopolymers. Science, 1995. 267(5206): p. 1924-1935. Mullin, J. W., Crystallization. 4th ed. 2001, Oxford: Reed Educational and Professional Publishing Ltd. Hoffman, J. D., Thermodynamic Driving Force in Nucleation and Growth Processes. Journal of Chemical Physics, 1958. 29(5): p. 1192-1193. Adam, G. and Gibbs, J. H., On Temperature Dependence of Cooperative Relaxation Properties in Glass-Forming Liquids. Journal of Chemical Physics, 1965. 43(1): p. 139-146. Ediger, M. D., Supercooled liquids and glasses. Journal of Physical Chemistry, 1996. 100(31): p. 13200-13212.). […] Neat amorphous drug generated by spray drying crystallizes within 2 weeks when stored in an open container at 5° C./ambient relative humidity (RH), 30° C./65% RH, 40° C./75% RH, and 60° C./ambient RH.

[2] = Pharmacokinetic profile in fasted beagle dogs; assay type: in vivo; settings: dog, blood, po, 1 mg/kg; for Cmax / AUC(0-t): 3 fasted beagle dogs; for AUC(0-t): read-out: AUC0-24
Protocol: The API is Compound A, or a pharmaceutically acceptable salt thereof. Bioavailability is determined in vivo by dosing trial formulations and/or other formulations of the active pharmaceutical ingredient (API) to Beagle dogs at a dose of 1 mg/kg of the API and then measuring the amount of API in the serum or blood as a function of time. The spray dried particles from Spray Dry Process I were made into granules as follows. The particles were blended in a suitable blender (V or Bohle) with microcrystalline cellulose (diluent/compression aid), lactose (diluent/compression aid), croscarmellose sodium (a disintegrant), colloidal silicon dioxide (a glidant), and magnesium stearate (a lubricant). The blended powders were then roller compacted into granules, subjected to extragranular lubrication, and filled into capsules.

[3] = capsule of spray dried dispersion: 10% Compound A, 40% HPMCAS-LG
[4] = comparison capsule: 30% crystalline Compound A without polymer, 5% sodium lauryl sulfate

- time to crystallization ([1]; 5° C./ambient RH): ≤ 2 weeks
- time to crystallization ([1]; 30° C./65% RH): ≤ 2 weeks
- time to crystallization ([1]; 40° C./75% RH): ≤ 2 weeks
- time to crystallization ([1]; 60° C./ambient RH): ≤ 2 weeks
- Tmax [2]: 4 h
- Cmax [2, 3]: 7.23 ± 0.99 µM
- AUC(0-t) [2, 3]: 137 ± 25.3 µM·h
- Cmax [2, 4]: 3.46 ± 1.59 µM
- AUC(0-t) [2, 4]: 52.4 ± 15.9 µM·h
Structure (SMILES): Cn1c(Cn2ccc(C(F)(F)F)c(Oc3cc(Cl)cc(C#N)c3)c2=O)n[nH]c1=O [Compound A, 3-chloro-5-({1-[(4-methyl-5-oxo-4,5-dihydro-1H-1,2,4-triazol-3-yl)methyl]-2-oxo-4-(trifluoromethyl)-1,2-dihydropyridin-3-yl}oxy)benzonitrile]
